Assay results: patent US20220002314A1 (priority 2018, published 2022)
Like-named read-outs stand apart in the source and are kept apart here.

Columns and labels:
Human μ-opioid receptor = Human μ-opioid receptor (Homo sapiens, UniProt P35372); assay: biochemical; type: binding
[1] = biological target: Human α2δ-1 subunit of Cav2.2 calcium channel (Homo sapiens, UniProt P54289); assay: biochemical; type: binding
Sequence of Human α2δ-1 subunit of Cav2.2 calcium channel (P54289 25-1103): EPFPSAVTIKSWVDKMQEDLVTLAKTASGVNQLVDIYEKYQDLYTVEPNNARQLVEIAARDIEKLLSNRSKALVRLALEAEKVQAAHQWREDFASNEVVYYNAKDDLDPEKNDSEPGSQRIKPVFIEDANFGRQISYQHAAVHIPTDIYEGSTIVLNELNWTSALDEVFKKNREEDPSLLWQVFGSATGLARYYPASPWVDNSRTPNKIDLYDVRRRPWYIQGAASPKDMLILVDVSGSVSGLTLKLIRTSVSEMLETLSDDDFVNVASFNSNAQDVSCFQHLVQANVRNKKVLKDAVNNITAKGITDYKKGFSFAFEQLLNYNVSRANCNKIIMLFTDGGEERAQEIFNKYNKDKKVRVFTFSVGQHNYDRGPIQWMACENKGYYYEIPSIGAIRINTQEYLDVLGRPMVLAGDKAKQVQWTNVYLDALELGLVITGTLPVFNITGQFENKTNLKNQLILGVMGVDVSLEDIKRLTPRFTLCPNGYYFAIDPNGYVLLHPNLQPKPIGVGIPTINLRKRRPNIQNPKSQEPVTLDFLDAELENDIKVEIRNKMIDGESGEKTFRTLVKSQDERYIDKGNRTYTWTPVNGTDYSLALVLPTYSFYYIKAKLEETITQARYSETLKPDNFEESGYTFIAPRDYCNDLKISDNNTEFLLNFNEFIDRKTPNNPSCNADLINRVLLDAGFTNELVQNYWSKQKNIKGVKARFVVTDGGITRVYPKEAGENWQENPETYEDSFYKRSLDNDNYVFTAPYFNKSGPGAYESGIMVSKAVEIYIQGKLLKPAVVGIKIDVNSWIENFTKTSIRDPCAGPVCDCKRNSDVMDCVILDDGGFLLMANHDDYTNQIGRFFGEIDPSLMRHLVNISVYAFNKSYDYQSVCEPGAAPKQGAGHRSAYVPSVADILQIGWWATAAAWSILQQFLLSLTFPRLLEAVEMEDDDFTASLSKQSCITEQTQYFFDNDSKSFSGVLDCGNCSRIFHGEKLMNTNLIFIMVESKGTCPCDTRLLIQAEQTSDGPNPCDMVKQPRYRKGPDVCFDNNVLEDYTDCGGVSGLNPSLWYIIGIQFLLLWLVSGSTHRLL

Sequence of Human μ-opioid receptor (P35372 whole entry): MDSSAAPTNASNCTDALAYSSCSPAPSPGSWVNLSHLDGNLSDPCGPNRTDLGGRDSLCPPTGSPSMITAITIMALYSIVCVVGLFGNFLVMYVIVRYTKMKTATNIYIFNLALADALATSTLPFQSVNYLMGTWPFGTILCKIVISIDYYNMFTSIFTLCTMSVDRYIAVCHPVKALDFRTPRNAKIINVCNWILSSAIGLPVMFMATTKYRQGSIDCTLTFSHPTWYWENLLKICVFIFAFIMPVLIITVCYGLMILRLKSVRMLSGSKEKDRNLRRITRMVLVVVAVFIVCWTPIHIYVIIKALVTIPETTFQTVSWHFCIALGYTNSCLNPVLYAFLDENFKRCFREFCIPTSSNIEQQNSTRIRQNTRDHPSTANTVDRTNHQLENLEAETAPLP

| Ki (Human μ-opioid receptor; read-out: μ-binding) [nM] | Ki ([1]; read-out: α2δ-1 binding) [nM] | SMILES | Ki (Human μ-opioid receptor) [nM] | Ki [1] [nM] |
| --- | --- | --- | --- | --- |
| – | – | CCCC(c1nc2ccc(CN(C)Cc3ccccc3)cc2c(=O)n1CC)N1C[C@@H](C)N[C@@H](C)C1 (stereo partly drawn) [Example 183, 6-((benzyl(methyl)amino)methyl)-2-(1-((3S,5R)-3,5-dimethylpiperazin-1-yl)butyl)-3-ethylquinazolin-4(3H)-one] | > 500 | < 500 |
| – | – | CCCC(c1nc2ccc(CN(C)CC(C)C)cc2c(=O)n1CC)N1C[C@@H](C)N[C@@H](C)C1 (stereo partly drawn) [Example 184, 2-(1-((3S,5R)-3,5-dimethylpiperazin-1-yl)butyl)-3-ethyl-6-((isobutyl(methyl)amino)methyl)quinazolin-4(3H)-one] | > 500 | < 500 |
| – | – | CCCC(c1nc2ccc(CN(C)CCC(C)C)cc2c(=O)n1CC)N1C[C@@H](C)N[C@@H](C)C1 (stereo partly drawn) [Example 185, 2-(1-((3S,5R)-3,5-dimethylpiperazin-1-yl)butyl)-3-ethyl-6-((isopentyl(methyl)amino)methyl)quinazolin-4(3H)-one] | > 500 | < 500 |
| – | – | CCCC(c1nc2cc(CN3CCN(C)CC3)ccc2c(=O)n1C)N1C[C@@H](C)N[C@@H](C)C1 (stereo partly drawn) [Example 186, 2-(1-((3S,5R)-3,5-dimethylpiperazin-1-yl)butyl)-3-methyl-7-((4-methylpiperazin-1-yl)methyl)quinazolin-4(3H)-one] | > 500 | < 500 |
| > 500 | 500 to 5000 | CCCC(c1nc2ccc(Br)cc2c(=O)n1CC)C1CCNCC1 (stereo not drawn) [Example 187, 6-Bromo-3-ethyl-2-(1-(piperidin-4-yl)butyl)quinazolin-4(3H)-one] | – | – |
| > 500 | 500 to 5000 | CCCC(C1=CCNCC1)c1nc2ccc(Br)cc2c(=O)n1CC (stereo not drawn) [Example 188, 6-bromo-3-ethyl-2-(1-(1,2,3,6-tetrahydropyridin-4-yl)butyl)quinazolin-4(3H)-one] | – | – |
| – | – | CCC[C@@H](c1nc2ccc(Br)cc2c(=O)n1CC)[C@H]1CCN[C@@H](C)C1 [Example 190, 6-Bromo-3-ethyl-2-((R)-1-((2S,4S)-2-methylpiperidin-4-yl)butyl)quinazolin-4(3H)-one] | > 500 | > 5000 |
| – | – | CCC[C@H](c1nc2ccc(Br)cc2c(=O)n1CC)[C@H]1CCN[C@@H](C)C1 [Example 191, 6-bromo-3-ethyl-2-((S)-1-((2S,4S)-2-methylpiperidin-4-yl)butyl)quinazolin-4(3H)-one] | 100 to 500 | < 500 |
| – | – | CCC[C@@H](c1nc2ccc(Br)cc2c(=O)n1CC)[C@@H]1CCN[C@@H](C)C1 [Example 192, 6-bromo-3-ethyl-2-((R)-1-((2S,4R)-2-methylpiperidin-4-yl)butyl)quinazolin-4(3H)-one] | > 500 | > 5000 |
| – | – | CCC[C@H](c1nc2ccc(Br)cc2c(=O)n1CC)[C@@H]1CCN[C@@H](C)C1 [Example 193, 6-bromo-3-ethyl-2-((S)-1-((2S,4R)-2-methylpiperidin-4-yl)butyl)quinazolin-4(3H)-one] | > 500 | > 5000 |
| – | – | CCC[C@H](c1nc2ccc(Br)cc2c(=O)n1CC)[C@@H]1CCNCC1(F)F [Example 194, 6-Bromo-2-((S)-1-((S)-3,3-difluoropiperidin-4-yl)butyl)-3-ethylquinazolin-4(3H)-one] | > 500 | > 5000 |
| – | – | CCC[C@@H](c1nc2ccc(Br)cc2c(=O)n1CC)[C@H]1CCNCC1(F)F [Example 195, 6-bromo-2-((R)-1-((R)-3,3-difluoropiperidin-4-yl)butyl)-3-ethylquinazolin-4(3H)-one] | > 500 | < 500 |
| – | – | CCC[C@H](c1nc2ccc(Br)cc2c(=O)n1CC)[C@H]1CCNCC1(F)F [Example 196, 6-bromo-2-((S)-1-((R)-3,3-difluoropiperidin-4-yl)butyl)-3-ethylquinazolin-4(3H)-one] | > 500 | > 5000 |
| – | – | CCC[C@@H](c1nc2ccc(Br)cc2c(=O)n1CC)[C@@H]1CCNCC1(F)F [Example 197, 6-bromo-2-((R)-1-((S)-3,3-difluoropiperidin-4-yl)butyl)-3-ethylquinazolin-4(3H)-one] | > 500 | 500 to 5000 |
| – | – | CCC[C@H](c1nc2ccc(Cl)cc2c(=O)n1C)N1CCN[C@@H](C)C1 [Example 198, 6-chloro-3-methyl-2-((R)-1-((S)-3-methylpiperazin-1-yl)butyl)quinazolin-4(3H)-one] | 100 to 500 | < 500 |
| – | – | CCC[C@H](c1nc2c(F)cc(Cl)cc2c(=O)n1CC)N1CCNCC1 [Example 199, (R)-6-chloro-3-ethyl-8-fluoro-2-(1-(piperazin-1-yl)butyl)quinazolin-4(3H)-one] | 100 to 500 | < 500 |
| – | – | CCC[C@H](c1nc2c(F)cc(F)cc2c(=O)n1CC)N1CCNCC1 [Example 200, (R)-3-ethyl-6,8-difluoro-2-(1-(piperazin-1-yl)butyl)quinazolin-4(3H)-one] | 100 to 500 | < 500 |
| – | – | CCC[C@H](c1nc2c(F)cc(F)cc2c(=O)n1CC)N1CCN[C@@H](C)C1 [Example 201, 3-ethyl-6,8-difluoro-2-((R)-1-((S)-3-methylpiperazin-1-yl)butyl)quinazolin-4(3H)-one] | < 100 | < 500 |

| Ki (Human μ-opioid receptor; read-out: μ-binding) [nM] | Ki ([1]; read-out: α2δ-1 binding) [nM] | SMILES | Ki (Human μ-opioid receptor) [nM] | Ki [1] [nM] |
| --- | --- | --- | --- | --- |
| – | – | CCC[C@H](c1nc2ccc(F)cc2c(=O)n1CCC)N1CCN[C@@H](C)C1 [Example 202, 6-fluoro-2-((R)-1-((S)-3-methylpiperazin-1-yl)butyl)-3-propylquinazolin-4(3H)-one] | > 500 | < 500 |
| – | – | CCC[C@H](c1nc2c(F)cccc2c(=O)n1CC)N1CCN[C@@H](C)C1 [Example 203, 3-ethyl-8-fluoro-2-((R)-1-((S)-3-methylpiperazin-1-yl)butyl)quinazolin-4(3H)-one] | > 500 | < 500 |
| – | – | CCC[C@H](c1nc2ccc(OC(F)(F)F)cc2c(=O)n1CC)N1CCN[C@@H](C)C1 [Example 204, 3-ethyl-2-((R)-1-((S)-3-methylpiperazin-1-yl)butyl)-6-(trifluoromethoxy)quinazolin-4(3H)-one] | > 500 | < 500 |
| – | – | CCC[C@H](c1nc2ccc(F)cc2c(=O)n1C)N1CCN[C@@H](C)C1 [Example 205, 6-fluoro-3-methyl-2-((R)-1-((S)-3-methylpiperazin-1-yl)butyl)quinazolin-4(3H)-one] | 100 to 500 | < 500 |
| – | – | CCC[C@H](c1nc2cc(Cl)c(Cl)cc2c(=O)n1C)N1CCN[C@@H](C)C1 [Example 206, 6,7-dichloro-3-methyl-2-((R)-1-((S)-3-methylpiperazin-1-yl)butyl)quinazolin-4(3H)-one] | 100 to 500 | < 500 |
| – | – | CCC[C@H](c1nc2ccc(C(F)(F)F)cc2c(=O)n1CC)N1CCN[C@@H](C)C1 [Example 207, 3-ethyl-2-((R)-1-((S)-3-methylpiperazin-1-yl)butyl)-6-(trifluoromethyl)quinazolin-4(3H)-one] | 100 to 500 | < 500 |
| – | – | CCC[C@H](c1nc2cc(F)c(Br)cc2c(=O)n1CC)N1CCN[C@H](C)C1 [Example 208, 6-bromo-3-ethyl-7-fluoro-2-((R)-1-((R)-3-methylpiperazin-1-yl)butyl)quinazolin-4(3H)-one] | > 500 | < 500 |
| – | – | CCC[C@@H](c1nc2cc(F)c(Br)cc2c(=O)n1CC)N1CCN[C@H](C)C1 [Example 209, 6-bromo-3-ethyl-7-fluoro-2-((S)-1-((R)-3-methylpiperazin-1-yl)butyl)quinazolin-4(3H)-one] | 100 to 500 | < 500 |
| – | – | CCC[C@H](c1nc2cc(F)c(OC)cc2c(=O)n1CC)N1CCN[C@H](C)C1 [Example 210, 3-ethyl-7-fluoro-6-methoxy-2-((R)-1-((R)-3-methylpiperazin-1-yl)butyl)quinazolin-4(3H)-one] | > 500 | < 500 |
| – | – | CCC[C@H](c1nc2ccc(OC)cc2c(=O)n1CC)N1CCN[C@H](C)C1 [Example 211, 3-ethyl-6-methoxy-2-((R)-1-((R)-3-methylpiperazin-1-yl)butyl)quinazolin-4(3H)-one] | > 500 | < 500 |
| – | – | CCC[C@H](c1nc2ccc(Br)cc2c(=O)n1CC)N1CCN[C@@H](CC)C1 [Example 212, 6-bromo-3-ethyl-2-((R)-1-((S)-3-ethylpiperazin-1-yl)butyl)quinazolin-4(3H)-one] | > 500 | < 500 |
| – | – | CCC[C@H](c1nc2cc(F)c(OC)cc2c(=O)n1CC)N1CCN[C@@H](C)C1 [Example 213, 3-ethyl-7-fluoro-6-methoxy-2-((R)-1-((S)-3-methylpiperazin-1-yl)butyl)quinazolin-4(3H)-one] | > 500 | < 500 |
| – | – | CCC[C@H](c1nc2ccc(F)cc2c(=O)n1CC)N1CCN[C@@H](C)C1 [Example 214, 3-ethyl-6-fluoro-2-((R)-1-((S)-3-methylpiperazin-1-yl)butyl)quinazolin-4(3H)-one] | 100 to 500 | < 500 |
| – | – | CCC[C@H](c1nc2ccc(OC)cc2c(=O)n1CC)N1CCN[C@@H](C)C1 [Example 215, 3-ethyl-6-methoxy-2-((R)-1-((S)-3-methylpiperazin-1-yl)butyl)quinazolin-4(3H)-one] | > 500 | < 500 |
| – | – | CCC[C@H](c1nc2cc(F)c(F)cc2c(=O)n1CC)N1CCN[C@@H](C)C1 [Example 216, 3-ethyl-6,7-difluoro-2-((R)-1-((S)-3-methylpiperazin-1-yl)butyl)quinazolin-4(3H)-one] | 100 to 500 | < 500 |
| – | – | CCC[C@H](c1nc2c(F)cc(Cl)cc2c(=O)n1CC)N1CCN[C@@H](C)C1 [Example 217, 6-chloro-3-ethyl-8-fluoro-2-((R)-1-((S)-3-methylpiperazin-1-yl)butyl)quinazolin-4(3H)-one] | < 100 | < 500 |
| – | – | CCC[C@H](c1nc2ccc(F)c(F)c2c(=O)n1CC)N1CCN[C@@H](C)C1 [Example 218, 3-ethyl-5,6-difluoro-2-((R)-1-((S)-3-methylpiperazin-1-yl)butyl)quinazolin-4(3H)-one] | 100 to 500 | < 500 |
| – | – | CCC[C@H](c1nc2ccc(Br)cc2c(=O)n1CC)N1CCN[C@@H](COC)C1 [Example 219, 6-bromo-3-ethyl-2-((R)-1-((R)-3-(methoxymethyl)piperazin-1-yl)butyl)quinazolin-4(3H)-one] | > 500 | < 500 |
